Assays:
[1] = tested on: stratum corneum of pig skin; details: stratum corneum immersed in 5% solution; weight at 90% relative humidity vs dry weight at 0% relative humidity
Excerpt: The epidermis of full thickness pig skin (Animal Technologies, Tyler, Tex.) was removed using a Packard Instruments dermatome, and the stratum corneum was removed via trypsin digestion. Pieces of stratum corneum were then immersed in millipore water, a 5% choline chloride (Aldrich Chemical, Milwaukee, Wis.), or a 5% glycerin solution. Using a dynamic vapour sorption meter (Surface Measurement Systems, Coopersburg, Pa.), the skin was equilibrated under a 0% relative humidity environment until the change in weight varied no more than 0.005% per min. This weight was recorded as the dry weight. The relative humidity was then increased to 90%. The skin was equilibrated at this humidity until the change in weight varied no more than 0.005% per min. This weight was, likewise, recorded and the % water uptake was calculated.

[2] = tested on: Full thickness Yucatan swine skin; details: (3H3C)-choline in 25% shower gel solution (100 mg choline chloride per 20 ml); two 5 minute applications, each rinsed with 10 ml distilled water
Experimental: The radiolabelling experiment described in this example was carried out to quantify the amount of choline that could adhere to the skin following a water rinse. Full thickness Yucatan swine skin (Charles River, Inc., Wilmington, Mass.) was mounted (dermis side down) onto a special sample holder, the dimensions of which were previously described in U.S. Pat. No. 4,836,014. This sample holder exposed approximately 4.91 cm^2 of the skin. A 1 ml aliquot of (^3H3C)-choline (American Radiolabel Chemicals, Inc., St. Louis, Mo.) containing shower gel was next applied to the surface of the exposed skin. […] After five minutes had elapsed, the shower gel was removed, and the surface of the skin was rinsed with 10 ml of distilled water. A second 1 ml aliquot of the (^3H3C)-choline containing shower gel was then reapplied to the skin. Again, after a 5 minute exposure time, the shower gel was removed and the skin rinsed with 10 ml of distilled water. The skin sample was then removed from its sample holder and air-dried for 10 minutes. Four 4 mm diameter punches were collected from each piece of treated skin, oxidized in a Packard oxidizer, and counted in a Packard 2000 Tri-carb liquid scintillation analyzer (Packard Instruments Inc., Downers Grove, Ill.). To obtain the specific activity, 0.1 ml of the (^3H3C)-choline containing shower gel was counted in the Packard 2000 analyzer.

| SMILES | % Water Uptake [1] | amount of choline remaining on the skin following a water rinse [2] |
| --- | --- | --- |
| OCC(O)CO [5% Glycerin, glycerin, reference compound] | 75 ± 6% | – |
| C[N+](C)(C)CCO.[Cl-] [5% Choline, choline chloride] | 89 ± 14% | 33 μg/cm^2 |

— patent US20020010113A1, “Composition” (Colgate-Palmolive Company, priority 1999, published 2002)
